For 89 compounds, melting point results are on record in a melting point compilation (Tetko et al.; mined from patent text by program, amines drawn as free bases though some values may be those of a salt).

One may read the melting point as the temperature, or range, at which the solid turns liquid. The compound `CC(C)CCN1N=C(c2ccc(F)cc2)c2cc(F)ccc2CS1(=O)=O` showed a melting point of 130 to 133 °C.
The value for `Clc1ccc(-c2nnnn2Cc2ccccc2)s1` was 176 to 177 °C; that for `CC(C)(C)OC(=O)NN1CCN([Si](C)(C)C)C1=O` was 132 °C.
The value for `COc1cc(NC(C)=O)ccc1C=NNC(=N)NN=Cc1ccc(NC(C)=O)cc1OC` was 287 to 288 °C; that for `NC(=NCC(F)(F)F)Nc1ccnc(CCCCc2nc(O)n[nH]2)n1` was 209 to 210 °C.
Compound `COc1ccc2c(c1)S(=O)(=O)N(C(OC(=O)c1sccc1Cl)C(C)C)C2=O` (centres undefined) displayed a melting point of 138 to 140 °C.
`CNC(=O)n1c(N=Cc2ccc([N+](=O)[O-])o2)nc2ccccc21` showed a melting point of 170 to 171 °C.
The result for `Cc1cc(NCc2ccccc2)c2cc(NC(=O)C=Cc3ccccc3Cl)ccc2n1` reads 253 to 254 °C; that for `Cc1sc(CCc2ccc(CCCC3OC(=O)NC3=O)cc2)nc1-c1ccccc1` (centres undefined), 111 to 112 °C; that for `CC(C)n1nc(-c2c(NCc3ccccn3)nc(N)nc2-c2ccc(F)cc2)ccc1=O`, 210 to 212 °C.
With `O=c1oc2c(c(O)c1C(c1ccccc1)C1CC1)CCCCCC2CC1CCCCO1` (centres undefined), the melting point fell in the range of 88 to 93 °C.
The value for `CC1(C)CC(N2CCN(Cc3ccccc3)C2=O)c2cc(C#N)ccc2O1` (centres undefined) was 45 to 48 °C; that for `COc1cc2cc(-c3cccnc3)nc(-c3ccccc3)c2cc1OC` was 176 to 177 °C; that for `CC#Cc1ccc([C@H]2CC[C@H](CCCCC)CC2)nn1` was 103 to 104 °C.
`CCOP(=O)(OCC)/C(O)=C/c1cn(-c2ccccc2)nc1OCc1ccc(OCc2nc(-c3ccco3)oc2C)c(OC)c1` gave a melting point of 147 to 149 °C.
The value for `COc1ccc(Cn2cc[nH]c2=O)cc1` was 132 °C; that for `CC1(C)CC(=S)Nc2ccc(-c3cccc(Cl)c3)cc21` was 197 to 198 °C.
The result for `c1cncc(C2=NOC(C3CC3)(N3CCCC3)C2)c1` (centres undefined) reads 90 to 92 °C.
The result for `CC(c1ccc(Cl)cc1Cl)C1(c2cccnc2)OC=CC1=O` (centres undefined) reads 111 to 112 °C; that for `O=C1Cc2cc(-c3cccc([N+](=O)[O-])c3)ccc2N1`, 269 °C; that for `COC(=O)C(=C1SCCCN1C(=O)C(Cl)Cl)[N+](=O)[O-]`, 122 °C.
`CCc1ccc(NC(=O)c2cc(C(C)(C)C)ccc2S)cc1` showed a melting point of 150 to 151 °C.
The result for `COc1ccc2c(C(C)=O)noc2c1` reads 64 to 67 °C; that for `CCOC(=O)c1c(C)[nH]c(Sc2cc(Cl)cc(Cl)c2)c1C(C)C`, 148 to 151 °C; that for `COc1cc2c(N3CCN(C(=O)Nc4ccc(Oc5ccccc5)cc4)CC3)ncnc2cc1OC(C)C`, 157 to 160 °C.
The compound `CCCCCCCCCCCCCCCCCCOC[C@H](CO)OC(=O)NC` returned a melting point of 68 to 69 °C.
The result for `CNC(=O)NC(=O)C(CC1CCCC1)c1ccc(S(C)(=O)=O)c([N+](=O)[O-])c1` (centres undefined) reads 241 to 242 °C; that for `CS(=O)(=O)Nc1ccc(Cl)c(F)c1`, 109 to 111 °C.
The value for `NC(=O)C1CCCc2c1c1cc(OCCCC(=O)O)ccc1n2Cc1ccccc1` (centres undefined) was 199 to 200 °C; that for `Cc1ccc(C2CCC(=NO)c3ccccc32)cc1` (centres undefined) was 97 to 101 °C.
As for `CCCN(C(C)=O)c1cccc(-c2ccc3nnc(C)n3n2)c1`, the melting point is 145 to 149 °C.
The value for `CCOC(=O)CCCC(CNC(=O)OC(C)(C)C)c1ccccc1` (centres undefined) was 82 to 84 °C; that for `C=C(C)C(=O)OCCN(CCOC(=O)C(=C)C)c1ccc(N=Nc2ccc([N+](=O)[O-])cc2)cc1` was 88 to 90 °C.
Turning to `CCOC(=O)[C@H](CSC(=O)c1ccccc1)NC(=O)c1ccccc1`, the melting point was 81 °C.
The result for `Cc1nc2c(N)nc3ccccc3c2n1CCCCCNC(=O)c1ccccc1` reads 110 to 120 °C; that for `CC(C)(C)OC(=O)Nc1cccc(C2(O)COC2)c1`, 121 to 123 °C.
The result for `Oc1ccc2[nH]cc(CCN3CCC(O)(c4ccccc4)CC3)c2c1` reads 150 °C.
The value for `O=C1CCC(Cc2ccccc2)CC1` was 40 to 44 °C; that for `Cc1cc(-c2nnc(C(C)(C)C)o2)ccc1N=CN(C)C` was 79 to 80 °C.
As for `CNn1c(C)nn(C(=O)NC(C)(C)CCc2ccccc2)c1=O`, the melting point stood at 102 °C.
In the case of `CNC(=S)C1(c2cncc(Br)c2)CCCCC1=O` (centres undefined), the melting point lay in the range of 201 to 203 °C.
As to `CCCCn1c(=O)c2c(ncn2S(=O)(=O)c2ccc(NO)cc2)n(CCCC)c1=O`, the melting point was 148 to 150 °C.
The result for `CC(C(=O)O)c1ccc(C(C)(C)C)cc1` (centres undefined) reads 101 to 103 °C.
Compound `Cn1c(=O)n(CCCC2(C)OCCO2)c(=O)c2c1ncn2Cc1ccccc1` showed a melting point of 104 to 105 °C.
The value for `CC(C)n1nc(-c2c(-c3ccccc3)nn3ccc(OCCN4C[C@@H](C)O[C@@H](C)C4)cc23)ccc1=O` was 158 °C; that for `CC(O)(c1ccc(Cl)cc1)c1cc2ccccc2o1` (centres undefined) was 64 to 66 °C.
In turn, `CC(=O)C1=CCC2C3CCC4=CC(=O)CCC4(C)C3CCC12C` (centres undefined) came in with a melting point of 185 to 190 °C.
Compound `N#CC=Cc1cccc(Br)c1` registered a melting point of 62 °C.
In turn, `COc1ccccc1N1CCN(CCn2c(=O)[nH]c3ccc(O)c(O)c3c2=O)CC1` came in with a melting point of 223 to 227 °C.
In turn, `Nc1cc(Cl)ccc1C(=O)c1cccc(O)c1` came in with a melting point of 137 to 138 °C.
Compound `Nc1nc(NCCN2CCC(Nc3nc4ccccc4n3Cc3ccc(F)cc3)CC2)ccc1[N+](=O)[O-]` registered a melting point of 206 °C.
The value for `CCCCCc1cnc(N2CCC(c3ccc(COc4ccc(C#N)c(F)c4)nc3)CC2)nc1` was 92 to 94 °C.
The value for `C=CCN1C(C)(C)CC(O)CC1(C)C` was 84 to 85 °C; that for `CCCC1NCCc2ccc(NC(=N)c3cccs3)cc21` (centres undefined) was 127 to 128 °C.
With `COc1cc(-n2cnc3cc(-c4ccc(Cl)cc4)sc3c2=O)ccc1OCCN1CCCC1`, the melting point fell in the range of 214 to 215 °C.
The value for `CS(=O)(=O)c1ccc(-c2nc3n(c2-c2ccncc2)CCC3)cc1` was 222 to 224 °C; that for `O=c1oc(-c2ccccc2Cl)nn1-c1ccccc1C(F)(F)F` was 100 to 102 °C; that for `CC(C)C(NC(=O)c1ccc(C(=O)NCCCC(=O)O)cc1)C(=O)N1CCCC1C(=O)NC(C(=O)C(F)(F)F)C(C)C` (mixture of isomers) was 84 to 86 °C.
Take `CC(C)CCCOC1CCC2C3C(=O)C=C4CC(O)CCC4(C)C3CCC12C` (centres undefined): the melting point is 134 °C.
The result for `O=C1OCCC1Oc1cc(F)ccc1[N+](=O)[O-]` (centres undefined) reads 98 to 100 °C.
`CC(=O)C(=Cc1cc([N+](=O)[O-])cc([N+](=O)[O-])c1)C(C)=O` had a melting point of 101 to 105 °C.
The value for `Cc1cc(=O)n2cccc(S)c2n1` was 240 to 241 °C; that for `COc1ccnc(CSc2nc3c(C(F)(F)F)cccc3[nH]2)c1C` was 175 °C.
The value for `CC(O)c1c(Cl)nc2n(c1=O)CCS2` (centres undefined) was 171 to 172 °C; that for `O=[N+]([O-])c1cc(Cc2ccc[nH]2)cc(O)c1O` was 115 to 118 °C.
Regarding `CCCCn1c(CO)nc2c(Cl)nc3ccccc3c21`, the melting point was 184 to 185 °C.
The result for `Cc1cn(-c2ccc3nc(NC(=O)c4ccc(C(C)(C)C)cc4)cn3n2)c(C)n1` reads 254 to 255 °C.
The value for `CC(C)Sc1nc(-c2nn(C)c(OC(F)F)c2Cl)c(F)cc1Cl` was 63 to 64 °C; that for `C=C[C@@H](C)[C@H]1CC[C@H]2[C@@H]3CCC4=CC(=O)CC[C@]4(C)[C@H]3CC[C@]12C` was 138 to 139 °C.
In turn, `Cc1nc(NC(=O)c2ccc(C#N)cc2)sc1C(=O)NCc1ccccc1` had a melting point of 256 to 258 °C.
In the case of `Cc1ccc(-n2nc(C#N)cc2-c2ccc(S(C)(=O)=O)cc2)cc1Br`, the melting point is 179 to 180 °C.
The result for `NNC(=O)c1cc2ccncc2c2sc3ccccc3c12` reads 285 to 289 °C; that for `CN1CCc2cc(OC[C@H]3CO[C@](Cn4ccnc4)(c4ccc(Cl)cc4Cl)O3)ccc2C12CCSCC2` (racemic), 138 to 139 °C.
In turn, `CCCN1CCOc2cccc3nc4c(c1c23)CCCC4` yielded a melting point of 74.5 to 75.5 °C.
The result for `CC(C)(C)OC(=O)NCC1(CC(N)=O)CCCCC1` reads 123 to 125 °C; that for `C=CC(O)c1ccc2ccccc2c1` (centres undefined), 30 to 32 °C.
`CC(C)(C)OC(=O)N1CCCN(c2ccncc2)CC1` displayed a melting point of 124 to 129 °C.
In the case of `CCOC(=O)[C@@H]1Cc2ccccc2N1C(=O)CC[C@@H](NC(=O)OCc1ccccc1)C(=O)OCc1ccccc1`, the melting point was in the range of 114 to 116 °C.
The value for `O=C(Nc1ccc2c(c1)OCCO2)c1ccc2cc(Br)ccc2c1` was 223 °C; that for `Cc1noc(C)c1S(=O)(=O)Nc1cc(-c2ncc(C(F)(F)F)cc2Cl)ccc1Cl` was 161 to 162 °C.
For `CCCCc1nc2cccc(C(=O)OC)c2n1Cc1ccc(-c2ccccc2-c2nc(=S)o[nH]2)cc1`, the melting point was 180 to 181 °C.
Consider `COC(=O)CCC#Cc1ccccc1[N+](=O)[O-]`, for which the melting point is 44 to 46 °C.
Regarding `CCOC(=O)c1cc(COc2cc3ncnc(Nc4ccc(Cl)cc4F)c3cc2OC)ccn1`, the melting point fell in the range of 212 to 214 °C.
The value for `COc1ccccc1N1CCN(CC(O)CCN2C(=O)c3ccccc3C2=O)CC1` (centres undefined) was 192 to 194 °C; that for `Cn1nc(-c2ccccc2C(F)(F)F)nc1-c1ccccc1C(F)(F)F` was 108 to 111 °C; that for `CN(C)S(=O)(=O)c1cc(-c2csc(=Nc3ccc(Cl)cc3)n2C)ccc1Cl` was 184 °C.
The result for `CC(=O)NC[C@H]1CN(c2ccc(C3CCN(C(=O)c4ccno4)CC3)c(F)c2)C(=O)O1` reads 290 to 292 °C; that for `COC(=O)C1=C(C)NC(C#N)=C(C(=O)OC)C1c1cccc2c(=O)c(C)c(-c3ccccc3)oc12` (centres undefined), 250 °C; that for `CC(=O)NCC(=O)c1ccccc1`, 69 °C.
